Measurements from US20150148393A1, “COSMETIC AND/OR PHARMACEUTICAL COMPOSITION FOR THE TREATMENT OF SKIN INFLAMMATION AND RELATED SYNDROMES” (GENERAL TOPICS S.R.L., priority 2012, published 2015).

Test system: TNF alpha release from human keratinocytes
Test: Inhibition of SLS-induced TNF alpha release from human keratinocytes
Format: cell-based
Conditions: release induced by sodium lauryl sulphate (SLS), after a 24 hour-period
Source text: A comparison was made between the inhibition of TNF alpha release from human keratinocytes as induced by contact with sodium lauryl sulphate (SLS) and obtained with the use of methyl sulfonyl methane (MSM), and that obtained with the use of hydrocortisone, a compound known to be active in inhibiting the release of TNF alpha. […] Therefore, the studies performed pointed out that MSM can decrease both the release of TNF alpha (this cytokine is expressed by keratinocytes in an inflammatory process of the skin) and the overall intensity of erythema even when TNF alpha is over-expressed by ultraviolet radiations. […] Moreover, it should be noted that TNF alpha can activate TRPV receptors and, therefore, a decrease in the production thereof can prevent it from exerting an agonist effect on the receptors themselves.

SMILES	percentage decrease of TNF alpha release
C[C@]12CCC(=O)C=C1CC[C@@H]1[C@@H]2[C@@H](O)C[C@@]2(C)[C@H]1CC[C@]2(O)C(=O)CO [hydrocortisone]	5.25%
CS(C)(=O)=O [MSM, methyl sulfonyl methane]	12.33%
